{"source": "patent US20230210903A1", "about": "“HYPOXIA-RESISTANT NATURAL KILLER CELLS” (ONK THERAPEUTICS LIMITED, priority 2020, published 2023)", "molecules": {"B1": {"name": "TRAIL variant: encoded by the wildtype TRAIL gene containing the D269H/E195R mutation, described in WO 2009/077857 (protein)", "chain": "MAMMEVQGGPSLGQTCVLIVIFTVLLQSLCVAVTYVYFTNELKQMQDKYSKSGIACFLKEDDSYWDPNDEESMNSPCWQVKWQLRQLVRKMILRTSEETISTVQEKQQNISPLVRERGPQRVAAHITGTRGRSNTLSSPNSKNEKALGRKINSWESSRSGHSFLSNLHLRNGELVIHEKGFYYIYSQTYFRFQERIKENTKNDKQMVQYIYKYTSYPDPILLMKSARNSCWSKDAEYGLYSIYQGGIFELKENDRIFVSVTNEHLIDMHHEASFFGAFLVG"}}, "key": {"[1]": {"system": "phosphorylation of ERK and STAT3", "assay": "Western blotting of ERK and STAT3 phosphorylation in hypoxic KHYG-1 cells", "type": "cell-based", "details": "hypoxic KHYG-1 cells pre-treated with 5 μM for 2 h", "description": "Hypoxic KYHG-1 cells were pre-treated with 5 μM TPI-1 for 2 h, and then the cells were collected for western blotting analysis.\nFor western blotting, treated and untreated KHYG-1 and NK92 cells were lysed in buffer containing 50 mM Tris, 150 mM NaCl, 1% Triton X-100, 1% sodium deoxycholate, 0.1% SDS and protease inhibitors on ice for 30 min. Lysates were centrifuged at 12,000 rpm for 15 min, and supernatants were collected. Protein concentration was determined by the BCA protein assay kit (HEART Biotech, #WB003). Equal amounts of protein were loaded and separated on sodium dodecyl sulfate-polyacrylamide gel electrophoresis gel, and transferred onto a PVDF membrane (Millipore, #IPVH00010). After blocking for 1 h with 5% non-fat milk in PBS with 0.1% Tween-20 at room temperature, the membrane was incubated with primary antibody at 4° C. overnight. Immunoblots were visualized using HRP-conjugated secondary antibodies and the ECL Western Blot Detection kit (Phygene Life Sciences, #PH0353)."}, "[2]": {"system": "KHYG-1 cells", "assay": "Flow cytometry of activating receptors on NK cell surface, KHYG-1", "type": "cell-based", "details": "10 μM inhibitor for 24 h", "experimental": "(§1) Hypoxia diminishes the phosphorylation level of ERK and STAT3.\n(§2) The expression of NK cell cytotoxicity effector molecules and activating receptors was analyzed by flow cytometry. For membrane staining, 5×10^5 cells were collected and washed with staining buffer (PBS containing 0.1% NaN3 and 0.1% BSA) three times. The cells were then incubated for 30 min on ice, according to the instructions provided with the respective antibodies. After washing 3 times with cell stain buffer, the cells were resuspended in 300 μL staining buffer in the presence of Sytox Green or 7-AAD, which were used to gate out dead cells. Acquisition of 10,000 cells per reaction was performed using a CytoFLEX Cytometer (Beckman Coulter Life Sciences). Data were analyzed with Flowjo v7.6.2 (Tree Star). For intracellular staining, 5×10^5 cells were collected and fixed with 1 mL 1% paraformaldehyde in PBS for 15 minutes at room temperature. After washing 3 times with cell stain buffer, the fixed cells were then resuspended in 2 mL permeabilization buffer (0.1% saponin in cell staining buffer) and incubated for 30 min at room temperature. The cells were collected again by centrifugation, stained with the antibody at an optimal working concentration in permeabilization buffer for 15 min on ice. […]"}, "[3]": {"system": "NK-92 cells", "assay": "Flow cytometry of activating receptors on NK cell surface, NK-92", "type": "cell-based", "details": "10 μM inhibitor for 24 h", "experimental": "as §1, §2"}, "[4]": {"system": "K562 cells", "details": "KHYG-1 pretreated with 10 μM for 6 h, then K562 at different E:T ratios for 4 h", "description": "Statistical analysis showing the effects of ERK and STAT3 inhibition on NK cells cytotoxicity against K562 cells (n=3, * P<0.05, ** P<0.01). KHYG-1 cells were pretreated with 10 μM U0126 and 10 μM CPT for 6 h and then incubated with K562 at different E:T ratios for 4 h.\n(e) Flow cytometric analysis of the effects of TPI-1 on the NK cell cytotoxicity. Left panel: representative flow cytometry results of TPI-1 on the cytotoxicity of KHYG-1 cells. KHYG-1 cells were pretreated with 5 μM TPI-1 for 2 h, and then incubated with K562 cells at different E:T ratios for 4 h. Right panel: statistical analysis of the effects of TPI-1 on KHYG-1 cell cytotoxicity against K562 cells (n=3, * P<0.05).\n(b) Statistical analysis of the effects of knocking down SHP-1 on NK cells cytotoxicity against K562 cells (n=3, * P<0.05). […]\nPrior to the assay, NK cells and tumour cells were individually pre-incubated for 24 h at 5% CO2 with 20% or 1% 02 first. […] After the 4 h incubation, samples were harvested and washed followed by a combinational staining with CD2-APC, Annexin V-FITC as well as Sytox Green, in which CD2 was used to distinguish effector from target cells, and target cell death was detected with Annexin V-FITC and Sytox Green. A minimum of 10,000 target events were collected per sample, and the results were analyzed using Flowjo v7.6.2."}, "[5]": {"target": "DR4 (Homo sapiens, UniProt O00220)", "details": "surface plasmon resonance; WO 2009/077857; cited from earlier work"}, "[6]": {"target": "T1, decoy receptor DcR1 (Homo sapiens, UniProt O14798)", "T1 sequence (O14798 26-236)": "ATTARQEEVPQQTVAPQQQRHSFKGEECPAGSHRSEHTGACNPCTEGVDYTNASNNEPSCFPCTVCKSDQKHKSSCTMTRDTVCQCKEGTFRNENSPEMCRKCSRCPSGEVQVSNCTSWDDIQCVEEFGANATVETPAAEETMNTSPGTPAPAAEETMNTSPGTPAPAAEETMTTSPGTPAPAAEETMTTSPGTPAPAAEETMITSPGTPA", "details": "surface plasmon resonance; WO 2009/077857; cited from earlier work"}, "[7]": {"target": "T2, DcR1 (Homo sapiens, UniProt O14798)", "T2 sequence (O14798 26-236)": "T1 sequence (O14798 26-236)", "details": "compared with wildtype TRAIL; cited from earlier work"}, "[8]": {"target": "DR5 (Homo sapiens, UniProt O14763)", "details": "compared with wildtype TRAIL; cited from earlier work"}, "[9]": {"target": "T3, DcR2 (Homo sapiens, UniProt Q9UBN6)", "T3 sequence (Q9UBN6 56-386)": "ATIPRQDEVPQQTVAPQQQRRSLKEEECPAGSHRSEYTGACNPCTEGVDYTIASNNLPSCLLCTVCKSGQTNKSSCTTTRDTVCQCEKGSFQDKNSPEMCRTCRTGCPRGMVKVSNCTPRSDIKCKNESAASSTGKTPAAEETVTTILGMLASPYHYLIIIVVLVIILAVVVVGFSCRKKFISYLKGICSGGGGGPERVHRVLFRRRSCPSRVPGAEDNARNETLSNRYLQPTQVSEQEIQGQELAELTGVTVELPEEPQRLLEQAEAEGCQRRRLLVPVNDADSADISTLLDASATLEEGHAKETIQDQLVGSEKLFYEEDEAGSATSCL", "details": "compared with wildtype TRAIL; cited from earlier work"}}}
{"molecule": "O=C1C=CC(=O)C(c2cc(Cl)ccc2Cl)=C1", "note": "[TPI-1]", "values": [{"measurement": "phosphorylation of ERK and STAT3", "setting": "[1]", "value": "reverse the decrease"}]}
{"molecule": "N#CC(=C(/N)Sc1ccccc1N)/C(C#N)=C(\\N)Sc1ccccc1N", "note": "[U0126]", "values": [{"measurement": "expression of activating receptors NKp30, NKp46 and NKG2D", "setting": "[2]", "value": "significantly reduced"}, {"measurement": "expression of activating receptors NKp46 and NKG2D", "setting": "[3]", "value": "significantly reduced"}, {"measurement": "NK cell cytotoxicity against cancer cells", "setting": "[4]", "value": "significantly impaired"}]}
{"molecule": "C[C@H]1COC2=C1C(=O)C(=O)c1c2ccc2c1CCCC2(C)C", "note": "[cryptotanshinone]", "values": [{"measurement": "NK cell cytotoxicity against cancer cells", "setting": "[4]", "value": "significantly impaired"}]}
{"molecule": "Wildtype TRAIL: wildtype TRAIL ligand", "values": [{"measurement": "Kd", "setting": "[5]", "value": "> 2", "unit": "nM"}, {"measurement": "Kd", "setting": "[6]", "value": "> 20", "unit": "nM"}]}
{"molecule": "B1", "values": [{"measurement": "affinity for decoy receptor DcR1", "setting": "[7]", "value": "reducing"}, {"measurement": "affinity for DR5", "setting": "[8]", "value": "significantly increases"}, {"measurement": "affinity for decoy receptor DcR2", "setting": "[9]", "value": "reducing"}]}
